{"source": "patent US20090215640A1", "about": "“METHODS FOR IDENTIFYING LIGANDS FOR STEM CELLS AND CELLS DERIVED THEREFROM” (priority 2005, published 2009)", "key": {"hESCs": {"test_system": "hESCs", "experiment": "Binding and internalization of mouse selected peptide phage into hESCs", "assay_type": "cell-based, human", "details": "subpopulation of hESCs"}, "[1]": {"test_system": "adult heart capillaries and endocardium", "details": "Zhang et al., Circulation 2005; cited from earlier work"}, "[2]": {"target": "T1, CRIP2 (also known as heart LIM protein (Hlp)) (Mus musculus, UniProt Q9DCT8)", "T1 sequence (Q9DCT8 1-208)": "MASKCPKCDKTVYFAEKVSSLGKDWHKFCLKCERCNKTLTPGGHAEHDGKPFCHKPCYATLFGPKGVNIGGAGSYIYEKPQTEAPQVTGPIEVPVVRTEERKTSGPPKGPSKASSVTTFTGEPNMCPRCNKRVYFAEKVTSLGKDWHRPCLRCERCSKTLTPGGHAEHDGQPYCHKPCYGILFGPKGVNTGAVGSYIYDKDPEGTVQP", "details": "Zhang et al., Circulation 2005; cited from earlier work"}}}
{"substance": "CRPPR*", "values": [{"measurement": "Binding and internalization into hESCs", "setting": "hESCs", "value": "binds and internalizes into a subpopulation of hESCs"}, {"measurement": "Binding to adult heart capillaries and endocardium", "setting": "[1]", "value": "known to bind to adult heart capillaries and endocardium"}, {"measurement": "Binding to CRIP2", "setting": "[2]", "value": "binds to CRIP2"}]}
